Assay results as given in ChEMBL document CHEMBL1150622, “Three new modified limonoids from Khaya senegalensis” (J Nat Prod, 2002).
The source made the active and inactive calls. No cut-off for these calls is given here.

Experiments:
[1] = system: Human immunodeficiency virus 1; test: Antiviral activity against HIV1 in human MT4 cells assessed as inhibition of virus-induced cytopathic effect at 100 ug/mL; assay type: functional, organism-based
MT4 = test: Cytotoxicity against human MT4 cells at 100 ug/mL; assay type: cell-based

SMILES | Activity [1] | Activity (MT4)
COC(=O)[C@]1(C)[C@@H]([C@@]2(C)C=CC(=O)C(C)(C)[C@@H]2CO[C@@H]2O[C@H](CO)[C@@H](O)[C@H](O)[C@H]2O)CC[C@@]2(C)[C@H](c3ccoc3)OC(=O)[C@H]3O[C@]321 [KHAYANOSIDE] | inactive | Not Active
COC(=O)C[C@H]1[C@]2(C)C[C@]3(O)[C@H]4[C@@H](O[C@]56CC(=O)O[C@@H](c7ccoc7)[C@]5(C)CC[C@H]([C@]13C)[C@]46O)[C@H]2O [khayanolide D] | inactive | Not Active
COC(=O)[C@H](O)[C@@H]1[C@@]2(C)[C@H]3CC[C@@]4(C)[C@H](c5ccoc5)OC(=O)C[C@@]45O[C@H]4C(=O)[C@@]1(C)C[C@]2(OC(C)=O)[C@@H]4[C@@]35O [khayanolide E] | inactive | Not Active
